In ChEMBL document CHEMBL1138864, “Synthesis of novel caspase inhibitors for characterization of the active caspase proteome in vitro and in vivo” (J Med Chem, 2006) one finds Activity data, which are given here for 1 compound.

In test [1] the test system is Jurkat. The test is described as follows: Inhibition of etoposide-induced apoptosis in human Jurkat T cells at 1 uM. Format: functional, cell-based.
Test [2] deals with Jurkat. The test is described as follows: Inhibition of etoposide-induced apoptosis in human Jurkat T cells at 10 uM. It is filed as functional, cell-based.

Active and inactive are the calls of the source. The calls are words filed in the database; no cut-off is given here.

`Cc1cccc(C)c1C(=O)OCC(=O)[C@H](CC(=O)O)NC(=O)[C@H](CCCCNc1ccc([N+](=O)[O-])cc1[N+](=O)[O-])NC(=O)[C@H](CCC(=O)O)NC(=O)OCc1ccccc1`: the result in test [1] and in test [2] was Active.
